As a reminder, the melting point is the temperature, or range, at which the solid turns liquid.

Consider `COc1ccc2c(c1)cc(C(OC)(c1ccccc1)c1cc3cc(OC)ccc3n1S(=O)(=O)c1ccccc1)n2S(=O)(=O)c1ccccc1` [Example 7, Di-(5-Methyloxy-1-phenylsulphonylindol-2-yl)phenyl-methyloxymethane], for which the melting point lay in the range of 100 to 101 °C. Then `CN(C)Cc1c(C(O)c2cc3ccccc3n2S(=O)(=O)c2ccccc2)n(S(=O)(=O)c2ccccc2)c2ccccc12` (stereo not shown) [Example 8, (3-Dimethylaminomethyl-1-phenylsulphonylindol-2-yl)(1-phenylsulphonylindol-2-yl)methan-1-ol], with 116 to 117 °C; and `COc1ccc2cc(C(O)c3cc4ccccc4n3S(=O)(=O)c3ccccc3)n(S(=O)(=O)c3ccccc3)c2c1` (stereo not shown) [Example 11, 6-Methoxy-1-phenylsulphonyl-1H-2-indolyl(1-phenylsulphonyl-1H-2-indolyl)methanol], with 180 °C; and `COc1cccc2cc(C(O)c3cc4ccccc4n3S(=O)(=O)c3ccccc3)n(S(=O)(=O)c3ccccc3)c12` (stereo not shown) [Example 12, 7-Methoxy-1-phenylsulphonyl-1H-2-indolyl(1-phenylsulphonyl-1H-2-indolyl)methanol], with 148 to 150 °C. Then `COc1ccc2c(c1)cc(C(=O)c1cc3ccccc3n1S(=O)(=O)c1ccccc1)n2S(=O)(=O)c1ccccc1` [Example 17, (5-Methoxy-N-phenylsulphonylindol-2-yl)-(N-phenylsulphonylindol-2-yl)methan-1-one], with 205 °C; and `COc1ccc2[nH]c(C(=O)c3cc4cc(OC)ccc4[nH]3)cc2c1` [Example 21, Bis(5-methoxyindol-2-yl)-1-methanone], with 202 to 204 °C.

Compound `COc1ccc2[nH]c(C(=O)c3cc4ccccc4s3)cc2c1` [Example 28, Benzo[b]thiophen-2-yl(5-methoxy-1H-2-indolyl)-1-methanone] came in with a melting point of 200 °C.

Turning to `COc1cccc2cc(C(=O)c3cc4ccccc4n3S(=O)(=O)c3ccccc3)n(S(=O)(=O)c3ccccc3)c12` [Example 29, 7-Methoxy-1-phenylsulphonyl-1H-2-indolyl(1-phenyl-sulphonyl-1H-2-indolyl)methanone], the melting point fell in the range of 129 to 130 °C. On to `COc1cccc2cc(C(=O)c3cc4ccccc4[nH]3)[nH]c12` [Example 30, 7-Methoxy-1H-2-indolyl(1H-2-indolyl)methanone], for which the melting point is 151 °C.

The compound `COc1ccc2cc(C(=O)c3cc4ccccc4n3S(=O)(=O)c3ccccc3)n(S(=O)(=O)c3ccccc3)c2c1` [Example 31, 6-Methoxy-1-phenylsulphonyl-1H-2-indolyl(1-phenylsulphonyl-1H-2-indolyl)methanone] yielded a melting point of 184 to 186 °C. As to `COc1ccc2cc(C(=O)c3cc4ccccc4[nH]3)[nH]c2c1` [Example 32, 6-Methoxy-1H-2-indolyl(1H-2-indolyl)methanone], the melting point lay in the range of 184 to 186 °C.

`O=C(c1cc2ccccc2[nH]1)c1cc2cc(OCc3ccccc3)ccc2[nH]1` [Example 42, 5-Benzyloxy-1H-2-indolyl(1H-2-indolyl)methanone]: the melting point fell in the range of 199 to 201 °C.

In the case of `O=C(c1cc2ccccc2[nH]1)c1cc2cc(O)ccc2[nH]1` [Example 43, 5-Hydroxy-1H-2-indolyl(1H-2-indolyl)methanone], the melting point was > 220 °C. The result for `CCOc1ccc2[nH]c(C(=O)c3cc4ccccc4[nH]3)cc2c1` [Example 44, 5-Ethoxy-1H-2-indolyl(1H-2-indolyl)methanone] reads 168 to 169 °C; that for `O=C(c1cc2ccccc2[nH]1)c1cc2cc(OCCCCI)ccc2[nH]1` [Example 47, 5-(4-Iodobutyloxy)-1H-2-indolyl(1H-2-indolyl)methanone], 110 to 113 °C. `O=C(c1cc2ccccc2[nH]1)c1cc2cc(OCC3CCCCC3)ccc2[nH]1` [Example 49, 5-Cyclohexylmethyloxy-1H-2-indolyl(1H-2-indolyl)-methanone]: the melting point was 185 °C (dec.).
